Laboratory results as given in patent US4435583A, “2-Halo-substituted monic acid A useful as antibacterial compounds” (Beecham Group p.l.c., priority 1981, dated 1984).
Values after ≈ are worked out from the molar mass of the structure shown.

How the values were obtained:
Type in all cases: cell-based
[1] = test system: M. suipneumoniae NB12; test: In vitro anti-mycoplasmal MIC; conditions: Friis broth, 0.9% agarose, 6 days, 37° C.
[2] = test system: M. suipneumoniae JF435; test: In vitro anti-mycoplasmal MIC; conditions: Friis broth, 0.9% agarose, 6 days, 37° C.
[3] = test system: M. suipneumoniae HK(2); test: In vitro anti-mycoplasmal MIC; conditions: Friis broth, 0.9% agarose, 6 days, 37° C.
[4] = test system: M. suipneumoniae Str.11; test: In vitro anti-mycoplasmal MIC; conditions: Friis broth, 0.9% agarose, 6 days, 37° C.
[5] = test system: M. suipneumoniae J2206/183b; test: In vitro anti-mycoplasmal MIC; conditions: Friis broth, 0.9% agarose, 6 days, 37° C.
[6] = test system: M. suipneumoniae MS16; test: In vitro anti-mycoplasmal MIC; conditions: Mesomycoplasma hyopneumoniae, 144 h, Friis broth, 0.9% agarose, 6 days, 37° C., read-out: MIC
[7] = test system: M. suipneumoniae PW/C/210; test: In vitro anti-mycoplasmal MIC; conditions: Mesomycoplasma hyopneumoniae, 144 h, Friis broth, 0.9% agarose, 6 days, 37° C., read-out: MIC
[8] = test system: M. suipneumoniae LABER; test: In vitro anti-mycoplasmal MIC; conditions: Mesomycoplasma hyopneumoniae, 144 h, Friis broth, 0.9% agarose, 6 days, 37° C., read-out: MIC
[9] = test system: M. suipneumoniae UCD 1; test: In vitro anti-mycoplasmal MIC; conditions: Friis broth, 0.9% agarose, 6 days, 37° C.
[10] = test system: M. suipneumoniae TAM 6N; test: In vitro anti-mycoplasmal MIC; conditions: Friis broth, 0.9% agarose, 6 days, 37° C.
[11] = test system: M. suipneumoniae ATCC 25095; test: In vitro anti-mycoplasmal MIC; conditions: Friis broth, 0.9% agarose, 6 days, 37° C.
[12] = test system: M. suipneumoniae NCTC 10110; test: In vitro anti-mycoplasmal MIC; conditions: Friis broth, 0.9% agarose, 6 days, 37° C.
[13] = test system: M. hyorhinis ATCC 23234; test: In vitro anti-mycoplasmal MIC; conditions: Mesomycoplasma hyorhinis, ATCC23234, 144 h, Friis broth, 0.9% agarose, 6 days, 37° C., read-out: MIC
[14] = test system: M. hyorhinis ATCC 25021; test: In vitro anti-mycoplasmal MIC; conditions: Mesomycoplasma hyorhinis, ATCC25021, 144 h, Friis broth, 0.9% agarose, 6 days, 37° C., read-out: MIC
[15] = test system: M. hyosynoviae ATCC 25591; test: In vitro anti-mycoplasmal MIC; conditions: 144 h, Friis broth, 0.9% agarose, 6 days, 37° C., read-out: MIC
[16] = test system: M. bovis NCTC 10131; test: microbe, parasite or virus in culture; conditions: M. bovis NCTC 10131; Friis broth, 0.9% agarose; 6 days, 37° C.
[17] = test system: M. bovigenitalium ATCC 14173; test: In vitro anti-mycoplasmal MIC; conditions: 144 h, Friis broth, 0.9% agarose, 6 days, 37° C., read-out: MIC
[18] = test system: M. dispar NCTC 10125; test: In vitro anti-mycoplasmal MIC; conditions: 144 h, Friis broth, 0.9% agarose, 6 days, 37° C., read-out: MIC
[19] = test system: M. gallisepticum S6; test: In vitro anti-mycoplasmal MIC; conditions: Friis broth, 0.9% agarose, 6 days, 37° C.
[20] = test system: M. pneumoniae ATCC 15492; test: In vitro anti-mycoplasmal MIC; conditions: Friis broth, 0.9% agarose, 6 days, 37° C.
[21] = test system: Bord. bronchiseptica B08; test: MIC against veterinary bacteria; conditions: Diagnostic Sensitivity Test Agar, 18 hours, 37° C.
Experimental: (§1) The values were determined using a two fold serial dilutions in Diagnostic Sensitivity Test Agar with an inoculum of 10^4 organisms and incubation for 18 hours at 37° C.

[22] = test system: Bord. bronchiseptica B09; test: MIC against veterinary bacteria; conditions: Diagnostic Sensitivity Test Agar, 18 hours, 37° C.
Experimental: as §1

[23] = test system: Corynebacterium pyogenes CY1; test: MIC against veterinary bacteria; conditions: Diagnostic Sensitivity Test Agar, 18 hours, 37° C.
Experimental: as §1

[24] = test system: E. coli E1; test: MIC against veterinary bacteria; conditions: Diagnostic Sensitivity Test Agar, 18 hours, 37° C.
Experimental: as §1

[25] = test system: E. coli NCTC 10418; test: MIC against veterinary bacteria; conditions: Diagnostic Sensitivity Test Agar, 18 hours, 37° C.
Experimental: as §1

[26] = test system: Erysipelothrix rhusiopathiae NCTC 8163; test: MIC against veterinary bacteria; conditions: Diagnostic Sensitivity Test Agar, 18 hours, 37° C.
Experimental: as §1

[27] = test system: Past. haemolytica PA5; test: MIC against veterinary bacteria; conditions: Diagnostic Sensitivity Test Agar, 18 hours, 37° C.
Experimental: as §1

[28] = test system: Past. multocida PA1; test: MIC against veterinary bacteria; conditions: Diagnostic Sensitivity Test Agar, 18 hours, 37° C.
Experimental: as §1

[29] = test system: Past. multocida PA2; test: MIC against veterinary bacteria; conditions: Diagnostic Sensitivity Test Agar, 18 hours, 37° C.
Experimental: as §1

[30] = test system: S. dublin S7; test: MIC against veterinary bacteria; conditions: Diagnostic Sensitivity Test Agar, 18 hours, 37° C.
Experimental: as §1

[31] = test system: S. typhimurium S18; test: MIC against veterinary bacteria; conditions: Diagnostic Sensitivity Test Agar, 18 hours, 37° C.
Experimental: as §1

[32] = test system: Staph. aureus 152; test: MIC against veterinary bacteria; conditions: Diagnostic Sensitivity Test Agar, 18 hours, 37° C.
Experimental: as §1

[33] = test system: Staph. aureus B4; test: MIC against veterinary bacteria; conditions: Diagnostic Sensitivity Test Agar, 18 hours, 37° C.
Experimental: as §1

[34] = test system: Staph. aureus Oxford; test: MIC against veterinary bacteria; conditions: Diagnostic Sensitivity Test Agar, 18 hours, 37° C.
Experimental: as §1

[35] = test system: Strep. agalactiae SPA1; test: MIC against veterinary bacteria; conditions: Diagnostic Sensitivity Test Agar, 18 hours, 37° C.
Experimental: as §1

[36] = test system: Strep. dysgalactiae SPD1; test: MIC against veterinary bacteria; conditions: Diagnostic Sensitivity Test Agar, 18 hours, 37° C.
Experimental: as §1

[37] = test system: Strep. suis (group D) SPS11; test: MIC against veterinary bacteria; conditions: Diagnostic Sensitivity Test Agar, 18 hours, 37° C.
Experimental: as §1

[38] = test system: Strep. uberis SPU1; test: MIC against veterinary bacteria; conditions: Strep. uberis SPU1; Diagnostic Sensitivity Test Agar; 18 hours, 37° C.
Experimental: as §1

[39] = test system: Bacillus subtilis 6633; test: MIC against human bacteria; conditions: nutrient agar, 5% chocolated horse blood, 18 hours, 37° C.
Experimental: (§2) The values were determined by serial dilutions in nutrient agar with 5% chocolated horse blood after incubations for 18 hours at 37° C.

[40] = test system: Corynebacterium xerosis 9755; test: MIC against human bacteria; conditions: nutrient agar, 5% chocolated horse blood, 18 hours, 37° C.
Experimental: as §2

[41] = test system: E. coli ESS; test: MIC against human bacteria; conditions: nutrient agar, 5% chocolated horse blood, 18 hours, 37° C.
Experimental: as §2

[42] = test system: E. coli NCTC 10418; test: MIC against human bacteria; conditions: nutrient agar, 5% chocolated horse blood, 18 hours, 37° C.
Experimental: as §2

[43] = test system: Haemophilus influenzae Q1; test: MIC against human bacteria; conditions: nutrient agar, 5% chocolated horse blood, 18 hours, 37° C., read-out: MIC
Experimental: as §2

[44] = test system: Haemophilus influenzae Wy21; test: MIC against human bacteria; conditions: nutrient agar, 5% chocolated horse blood, 18 hours, 37° C., read-out: MIC
Experimental: as §2

[45] = test system: K. aerogenes A; test: MIC against human bacteria; conditions: nutrient agar, 5% chocolated horse blood, 18 hours, 37° C.
Experimental: as §2

[46] = test system: Neisseria catarrhalis 1502; test: MIC against human bacteria; conditions: nutrient agar, 5% chocolated horse blood, 18 hours, 37° C.
Experimental: as §2

[47] = test system: P. mirabilis 889; test: MIC against human bacteria; conditions: nutrient agar, 5% chocolated horse blood, 18 hours, 37° C.
Experimental: as §2

[48] = test system: Past. multocida 1633; test: MIC against human bacteria; conditions: nutrient agar, 5% chocolated horse blood, 18 hours, 37° C.
Experimental: as §2

[49] = test system: Ps. aeruginosa NCTC 10662; test: MIC against human bacteria; conditions: nutrient agar, 5% chocolated horse blood, 18 hours, 37° C.
Experimental: as §2

[50] = test system: Sarcina lutea 8340; test: MIC against human bacteria; conditions: nutrient agar, 5% chocolated horse blood, 18 hours, 37° C.
Experimental: as §2

[51] = test system: Staph. aureus Oxford; test: MIC against human bacteria; conditions: nutrient agar, 5% chocolated horse blood, 18 hours, 37° C.
Experimental: as §2

[52] = test system: Staph. aureus Russell; test: MIC against human bacteria; conditions: nutrient agar, 5% chocolated horse blood, 18 hours, 37° C.
Experimental: as §2

[53] = test system: Staph. aureus W2827; test: MIC against human bacteria; conditions: nutrient agar, 5% chocolated horse blood, 18 hours, 37° C.
Experimental: as §2

[54] = test system: Strep. 2788-B; test: MIC against human bacteria; conditions: nutrient agar, 5% chocolated horse blood, 18 hours, 37° C.
Experimental: as §2

[55] = test system: Strep. 641848-C; test: MIC against human bacteria; conditions: nutrient agar, 5% chocolated horse blood, 18 hours, 37° C.
Experimental: as §2

[56] = test system: Strep. faecalis I; test: MIC against human bacteria; conditions: nutrient agar, 5% chocolated horse blood, 18 hours, 37° C.
Experimental: as §2

[57] = test system: Strep. pneumoniae CN33; test: MIC against human bacteria; conditions: nutrient agar, 5% chocolated horse blood, 18 hours, 37° C.
Experimental: as §2

[58] = test system: Strep. pyrogenes R80/421-A; test: MIC against human bacteria; conditions: nutrient agar, 5% chocolated horse blood, 18 hours, 37° C.
Experimental: as §2

In the case of `CCOC(=O)C(F)=C(C)CC1OCC(CC2OC2C(C)C(C)O)C(O)C1O` [Example 2, Ethyl-4-[5S-(2S,3S-epoxy-5S-hydroxy-4S-methylhexyl)-3R, 4R-dihydroxytetrahydropyran-2S-yl]-2-fluoro-3-methylbut-2(E)-enoate], the MIC [1] is reported as 10.0 µg/mL (≈ 25.6 µM), the MIC [2] is reported as 10.0 µg/mL (≈ 25.6 µM) and the MIC [3] is reported as 10.0 µg/mL (≈ 25.6 µM). For the same compound, the MIC [4] was 5.0 µg/mL (≈ 12.8 µM), the MIC [5] was 10.0 µg/mL (≈ 25.6 µM) and the MIC [6] was 5 µg/mL (≈ 12.8 µM). It also gave an MIC [7] of 5 µg/mL (≈ 12.8 µM), an MIC [8] of 5 µg/mL (≈ 12.8 µM) and an MIC [9] of 10.0 µg/mL (≈ 25.6 µM). For the same compound, the MIC [10] was 10.0 µg/mL (≈ 25.6 µM), the MIC [11] was 10.0 µg/mL (≈ 25.6 µM) and the MIC [12] was 10.0 µg/mL (≈ 25.6 µM). The MIC [13] was 5 µg/mL (≈ 12.8 µM), the MIC [14] was 5 µg/mL (≈ 12.8 µM) and the MIC [15] was 10 µg/mL (≈ 25.6 µM). The MIC [16] was 0.25 µg/mL (≈ 0.64 µM), the MIC [17] was 0.5 µg/mL (≈ 1.28 µM) and the MIC [18] was 2.5 µg/mL (≈ 6.4 µM). For the same compound, the MIC [19] was 10.0 µg/mL (≈ 25.6 µM), the MIC [20] was 10.0 µg/mL (≈ 25.6 µM) and the MIC [21] was greater than 80.0 µg/mL. For the same compound, the MIC [22] was greater than 80.0 µg/mL, the MIC [23] was 80.0 µg/mL (≈ 205 µM) and the MIC [24] was greater than 80.0 µg/mL. For the same compound, the MIC [25] was greater than 80.0 µg/mL, the MIC [26] was 80.0 µg/mL (≈ 205 µM) and the MIC [27] was 80.0 µg/mL (≈ 205 µM). The MIC [28] was 40.0 µg/mL (≈ 102 µM), the MIC [29] was 20.0 µg/mL (≈ 51.2 µM) and the MIC [30] was greater than 80.0 µg/mL. It also gave an MIC [31] greater than 80.0 µg/mL, an MIC [32] of 40.0 µg/mL (≈ 102 µM) and an MIC [33] of 40.0 µg/mL (≈ 102 µM). The MIC [34] was 40.0 µg/mL (≈ 102 µM), the MIC [35] was 80.0 µg/mL (≈ 205 µM) and the MIC [36] was 40.0 µg/mL (≈ 102 µM). The MIC [37] was 80.0 µg/mL (≈ 205 µM), the MIC [38] was 20.0 µg/mL (≈ 51.2 µM) and the MIC [39] was 100.0 µg/mL (≈ 256 µM). For the same compound, the MIC [40] was greater than 100.0 µg/mL, the MIC [41] was 50.0 µg/mL (≈ 128 µM) and the MIC [42] was greater than 100.0 µg/mL. For the same compound, the MIC [43] was 10 µg/mL (≈ 25.6 µM), the MIC [44] was 10 µg/mL (≈ 25.6 µM) and the MIC [45] was greater than 100.0 µg/mL. For the same compound, the MIC [46] was 10.0 µg/mL (≈ 25.6 µM), the MIC [47] was greater than 100.0 µg/mL and the MIC [48] was 50.0 µg/mL (≈ 128 µM). For the same compound, the MIC [49] was greater than 100.0 µg/mL, the MIC [50] was greater than 100.0 µg/mL and the MIC [51] was 25.0 µg/mL (≈ 64 µM). It also gave an MIC [52] of 50.0 µg/mL (≈ 128 µM), an MIC [53] of 50.0 µg/mL (≈ 128 µM) and an MIC [54] greater than 100.0 µg/mL. For the same compound, the MIC [55] was 100.0 µg/mL (≈ 256 µM), the MIC [56] was greater than 100.0 µg/mL and the MIC [57] was 100.0 µg/mL (≈ 256 µM). It also gave an MIC [58] of 100.0 µg/mL (≈ 256 µM).
